According to ChEMBL document CHEMBL5331129, “Discovery of NAFLD-Improving Agents by Promoting the Degradation of Keap1” (J Med Chem, 2023):
Active and inactive are the calls of the source. The rule behind the calls is not given here.

Columns and labels:
[1] = biological target: Protein cereblon/Kelch-like ECH-associated protein 1 (Mus musculus) (UniProt Q9Z2X8+Q8C7D2); test: PROTAC activity at CRBN/Keap1 in mouse AML12 cells assessed as degradation of Keap1 protein at 1 uM incubated for 24 hrs by Western blotting analysis; assay type: cell-based
Chain of Protein cereblon/Kelch-like ECH-associated protein 1 (Mus musculus) (Q8C7D2 whole entry, looked up): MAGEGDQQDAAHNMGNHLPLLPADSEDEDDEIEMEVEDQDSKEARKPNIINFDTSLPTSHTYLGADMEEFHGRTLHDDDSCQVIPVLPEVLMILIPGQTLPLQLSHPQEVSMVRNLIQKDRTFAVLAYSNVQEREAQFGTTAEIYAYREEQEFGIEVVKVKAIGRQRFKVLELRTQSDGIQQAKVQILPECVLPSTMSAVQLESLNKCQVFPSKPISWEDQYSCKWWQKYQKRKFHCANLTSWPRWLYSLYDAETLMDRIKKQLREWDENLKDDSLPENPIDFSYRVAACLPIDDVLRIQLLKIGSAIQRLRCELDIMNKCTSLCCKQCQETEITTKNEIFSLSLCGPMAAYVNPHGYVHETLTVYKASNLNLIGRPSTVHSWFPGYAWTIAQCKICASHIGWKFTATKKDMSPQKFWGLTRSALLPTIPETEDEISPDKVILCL
Chain of Protein cereblon/Kelch-like ECH-associated protein 1 (Mus musculus) (Q9Z2X8 whole entry, looked up): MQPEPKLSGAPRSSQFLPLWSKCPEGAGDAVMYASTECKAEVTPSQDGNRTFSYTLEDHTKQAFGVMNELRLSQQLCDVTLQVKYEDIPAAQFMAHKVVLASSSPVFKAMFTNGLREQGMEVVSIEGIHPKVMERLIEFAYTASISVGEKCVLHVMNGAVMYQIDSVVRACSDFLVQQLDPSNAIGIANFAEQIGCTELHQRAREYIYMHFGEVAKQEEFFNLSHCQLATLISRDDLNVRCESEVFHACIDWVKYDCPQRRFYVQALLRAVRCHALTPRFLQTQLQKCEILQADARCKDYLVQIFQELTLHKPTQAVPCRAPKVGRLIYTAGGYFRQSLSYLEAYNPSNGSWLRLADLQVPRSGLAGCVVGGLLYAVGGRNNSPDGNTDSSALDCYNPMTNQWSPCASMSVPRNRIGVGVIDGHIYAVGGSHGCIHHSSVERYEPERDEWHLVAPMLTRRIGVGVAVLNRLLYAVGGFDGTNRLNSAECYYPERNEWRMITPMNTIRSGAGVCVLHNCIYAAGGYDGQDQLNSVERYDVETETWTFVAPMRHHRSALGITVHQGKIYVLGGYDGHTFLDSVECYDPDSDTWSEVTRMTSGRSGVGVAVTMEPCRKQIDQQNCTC

[2] = system: AML12; test: Antioxidant activity against free fatty acid induced oxidative stress in mouse AML12 cells assessed as increase in GSH level; assay type: functional, cell-based
[3] = system: Mus musculus; test: Antioxidant activity against MCD diet-induced oxidative stress in C57Bl/6 mouse model of NAFLD assessed as decrease in liver ROS level at 1 mg/kg,ip administrated for 4 weeks by immunostaining analysis; assay type: functional, organism-based
[4] = system: AML12; test: Antioxidant activity against free fatty acid induced oxidative stress in mouse AML12 cells assessed as decrease in ROS level incubated for 24 hrs; assay type: functional, cell-based
[5] = system: Mus musculus; test: Antioxidant activity against MCD diet-induced oxidative stress in C57Bl/6 mouse model of NAFLD assessed as decrease in histopathological change in liver at 1 mg/kg,ip administrated for 4 weeks by hematoxylin and eosin staining based assay; assay type: functional, organism-based
[6] = Acute toxicity in zebrafish assessed as pericardial edema at 5 uM observed at 120 hrs post fertilization; set-up: species or system Danio rerio; conditions: in vivo
[7] = system: Mus musculus; test: Antioxidant activity against MCD diet-induced oxidative stress in C57Bl/6 mouse model of NAFLD assessed as upregulation of liver Nrf2 protein expression level at 1 mg/kg,ip administrated for 4 weeks by immunoblot analysis; assay type: functional, organism-based
[8] = Acute toxicity in C57BL/6 mouse assessed as visceral damage at 20 mg/kg,ip qd administrated for 3 consecutive days and measured on day 4 by hematoxylin and eosin staining based assay; assay type: organism-based; conditions: in vivo
[9] = Acute toxicity in zebrafish at < 2.5 uM observed at 120 hrs post fertilization; set-up: species or system Danio rerio; conditions: in vivo
[10] = system: Mus musculus; test: Antioxidant activity against MCD diet-induced oxidative stress in C57Bl/6 mouse model of NAFLD assessed as reduction of serum TG level at 1 mg/kg,ip administrated for 4 weeks; assay type: functional, organism-based
[11] = system: Mus musculus; test: Antioxidant activity against MCD diet-induced oxidative stress in C57Bl/6 mouse model of NAFLD assessed as upregulation of liver NQO1 protein expression level at 1 mg/kg,ip administrated for 4 weeks by immunohistochemical staining assay; assay type: functional, organism-based
[12] = system: Mus musculus; test: Antioxidant activity against MCD diet-induced oxidative stress in C57Bl/6 mouse model of NAFLD assessed as upregulation of liver HO-1 protein expression level at 1 mg/kg,ip administrated for 4 weeks by immunohistochemical staining assay; assay type: functional, organism-based
[13] = system: AML12; test: Antioxidant activity against free fatty acid induced oxidative stress in mouse AML12 cells assessed as upregulation of Nrf2 protein expression level incubated for 24 hrs by immunoblot analysis; assay type: functional, cell-based
[14] = system: AML12; test: Antioxidant activity against free fatty acid induced oxidative stress in mouse AML12 cells assessed as upregulation of NQO1 protein expression level incubated for 24 hrs by immunoblot analysis; assay type: functional, cell-based
[15] = Acute toxicity in C57BL/6 mouse assessed as histopathological change in lung at 20 mg/kg,ip qd administrated for 3 consecutive days and measured on day 4 by hematoxylin and eosin staining based assay; assay type: organism-based; conditions: in vivo
[16] = system: Mus musculus; test: Antioxidant activity against MCD diet-induced oxidative stress in C57Bl/6 mouse model of NAFLD assessed as downregulation of liver Keap1 protein expression level at 1 mg/kg,ip administrated for 4 weeks by immunohistochemical staining assay; assay type: functional, organism-based
[17] = system: AML12; test: Antioxidant activity against free fatty acid induced oxidative stress in mouse AML12 cells assessed as increase in SOD level; assay type: functional, cell-based
[18] = Acute toxicity in C57BL/6 mouse assessed as histopathological change in spleen at 20 mg/kg,ip qd administrated for 3 consecutive days and measured on day 4 by hematoxylin and eosin staining based assay; assay type: organism-based; conditions: in vivo
[19] = system: Mus musculus; test: Antioxidant activity against MCD diet-induced oxidative stress in C57Bl/6 mouse model of NAFLD assessed as increase in SOD level in liver at 1 mg/kg,ip administrated for 4 weeks; assay type: functional, organism-based
[20] = Acute toxicity in C57BL/6 mouse assessed as histopathological change in liver at 20 mg/kg,ip qd administrated for 3 consecutive days and measured on day 4 by hematoxylin and eosin staining based assay; assay type: organism-based; conditions: in vivo
[21] = Acute toxicity in C57BL/6 mouse assessed as visceral cellular damage at 20 mg/kg,ip qd administrated for 3 consecutive days and measured on day 4 by hematoxylin and eosin staining based assay; assay type: organism-based; conditions: in vivo
[22] = system: Mus musculus; test: Antioxidant activity against MCD diet-induced oxidative stress in C57Bl/6 mouse model of NAFLD assessed as increase in CAT level in liver at 1 mg/kg,ip administrated for 4 weeks; assay type: functional, organism-based
[23] = Acute toxicity in C57BL/6 mouse assessed as histopathological change in heart at 20 mg/kg,ip qd administrated for 3 consecutive days and measured on day 4 by hematoxylin and eosin staining based assay; assay type: organism-based; conditions: in vivo
[24] = biological target: Kelch-like ECH-associated protein 1 (Homo sapiens, UniProt Q14145); test: Binding affinity to Keap1 (unknown origin) assessed as dissociation constant incubated for 200 sec by sensor chip immobilization based surface plasmon resonance analysis
Chain of Kelch-like ECH-associated protein 1 (Q14145 whole entry): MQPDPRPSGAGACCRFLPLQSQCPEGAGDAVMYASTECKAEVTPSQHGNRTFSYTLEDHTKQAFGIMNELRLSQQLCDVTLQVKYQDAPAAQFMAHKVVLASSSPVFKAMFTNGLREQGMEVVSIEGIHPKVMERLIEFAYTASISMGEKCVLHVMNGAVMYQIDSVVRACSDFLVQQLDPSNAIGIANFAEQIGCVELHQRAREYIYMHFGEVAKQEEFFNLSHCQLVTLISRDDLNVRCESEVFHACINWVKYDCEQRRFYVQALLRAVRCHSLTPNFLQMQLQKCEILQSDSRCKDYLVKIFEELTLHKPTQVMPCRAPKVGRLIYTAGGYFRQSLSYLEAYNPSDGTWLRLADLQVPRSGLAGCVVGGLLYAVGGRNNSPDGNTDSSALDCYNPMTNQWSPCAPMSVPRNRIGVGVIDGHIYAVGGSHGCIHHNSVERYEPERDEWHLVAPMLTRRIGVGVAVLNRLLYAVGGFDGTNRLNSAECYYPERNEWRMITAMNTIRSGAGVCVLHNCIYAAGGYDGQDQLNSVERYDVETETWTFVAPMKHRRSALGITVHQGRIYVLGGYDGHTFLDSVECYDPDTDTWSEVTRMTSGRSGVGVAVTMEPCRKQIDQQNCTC

[25] = system: Mus musculus; test: Antioxidant activity against MCD diet-induced oxidative stress in C57Bl/6 mouse model of NAFLD assessed as increase in GSH level in liver at 1 mg/kg,ip administrated for 4 weeks; assay type: functional, organism-based
[26] = Acute toxicity in zebrafish assessed as death at 5 uM observed at 120 hrs post fertilization; set-up: species or system Danio rerio; conditions: in vivo
[27] = system: AML12; test: Antioxidant activity against free fatty acid induced oxidative stress in mouse AML12 cells assessed as upregulation of HO-1 protein expression level incubated for 24 hrs by immunoblot analysis; assay type: functional, cell-based
[28] = Acute toxicity in zebrafish assessed as death at 10 uM observed at 72 hrs post fertilization; set-up: species or system Danio rerio; conditions: in vivo
[29] = system: Mus musculus; test: Antioxidant activity against MCD diet-induced oxidative stress in C57Bl/6 mouse model of NAFLD assessed as downregulation of liver Keap1 protein expression level at 1 mg/kg,ip administrated for 4 weeks by immunoblot analysis; assay type: functional, organism-based
[30] = system: AML12; test: Antioxidant activity against free fatty acid induced oxidative stress in mouse AML12 cells assessed as downregulation of Keap1 protein expression level incubated for 24 hrs by immunoblot analysis; assay type: functional, cell-based
[31] = system: Mus musculus; test: Antioxidant activity against MCD diet-induced oxidative stress in C57Bl/6 mouse model of NAFLD assessed as upregulation of liver Nrf2 protein expression level at 1 mg/kg,ip administrated for 4 weeks by immunofluorescence staining analysis; assay type: functional, organism-based
[32] = system: Mus musculus; test: Antioxidant activity against MCD diet-induced oxidative stress in C57Bl/6 mouse model of NAFLD assessed as downregulation of liver Keap1 protein expression level at 1 mg/kg,ip administrated for 4 weeks by immunofluorescence staining analysis; assay type: functional, organism-based
[33] = Acute toxicity in C57BL/6 mouse assessed as visceral inflammatory cell infiltration at 20 mg/kg,ip qd administrated for 3 consecutive days and measured on day 4 by hematoxylin and eosin staining based assay; assay type: organism-based; conditions: in vivo

**Q.** Which Activity [1] does the source give for `Nc1cccc2c1C(=O)N(C1CCC(=O)NC1=O)C2=O` (stereo not given) here?
**A.** inactive

**Q.** Which Activity [1] does the source give for `CN1C(=O)CCC(N2C(=O)c3cccc(NCCCCCNC(=O)[C@]45CCC(C)(C)C[C@H]4[C@H]4C(=O)C=C6C7(C)C=C(C#N)C(=O)C(C)(C)[C@@H]7CC[C@@]6(C)[C@]4(C)CC5)c3C2=O)C1=O` (single isomer, unassigned) here?
**A.** inactive

**Q.** What does the source list for `CC1(C)CC[C@]2(C(=O)O)CC[C@]3(C)[C@H](C(=O)C=C4[C@@]5(C)C=C(C#N)C(=O)C(C)(C)[C@@H]5CC[C@]43C)[C@@H]2C1` [BARDOXOLONE]?
**A.** Activity [2]: inactive; Activity [3]: Active; Activity [4]: Active; Activity [5]: Active; Activity [6]: Toxic; Activity [7]: inactive; Activity [8]: Non-Toxic; Activity [9]: Non-Toxic; Activity [10]: Active; Activity [11]: inactive; Activity [12]: inactive; Activity [13]: inactive; Activity [14]: inactive; Activity [15]: Toxic; Activity [16]: inactive; Activity [17]: Active; Activity [1]: inactive; Activity [18]: Toxic; Activity [19]: Active; Activity [20]: Toxic; Activity [21]: Toxic; Activity [22]: Active; Activity [23]: Toxic; Kd [24]: 48.7 µM; Activity [25]: Active; Activity [26]: Toxic; Activity [27]: inactive; Activity [28]: Toxic; Activity [29]: inactive; Activity [30]: inactive; Activity [31]: inactive; Activity [32]: inactive; Activity [33]: Toxic
